BindingDB's records for patent US20230322715 (University of California, 2023)

Assays:
Test in all cases: In Vitro Inhibition Assay Method
[1] = target: Alpha-ketoglutarate-dependent dioxygenase FTO (Homo sapiens, UniProt Q9C0B1)
Description: (§1) Inhibitors were added in concentrations ranging from 0.008-40 μM; all inhibitors were dissolved in DMSO and added to a final concentration of 0.2% DMSO. […] After incubation at room temperature for 2 hours, the plates were left at 4 C. overnight (16 hours) to allow DFHBI-1T to bind to A7-Broccoli RNA. […] Sigmoidal dose-response curves were fitted in GraphPad Prism 6.

RNA demethylase ALKBH5 = RNA demethylase ALKBH5 (Homo sapiens, UniProt Q6P6C2)
Description: as §1

[2] = target: T1, YTH domain-containing family protein 2 (Homo sapiens, UniProt Q9Y5A9)
T1 sequence (Q9Y5A9 whole entry): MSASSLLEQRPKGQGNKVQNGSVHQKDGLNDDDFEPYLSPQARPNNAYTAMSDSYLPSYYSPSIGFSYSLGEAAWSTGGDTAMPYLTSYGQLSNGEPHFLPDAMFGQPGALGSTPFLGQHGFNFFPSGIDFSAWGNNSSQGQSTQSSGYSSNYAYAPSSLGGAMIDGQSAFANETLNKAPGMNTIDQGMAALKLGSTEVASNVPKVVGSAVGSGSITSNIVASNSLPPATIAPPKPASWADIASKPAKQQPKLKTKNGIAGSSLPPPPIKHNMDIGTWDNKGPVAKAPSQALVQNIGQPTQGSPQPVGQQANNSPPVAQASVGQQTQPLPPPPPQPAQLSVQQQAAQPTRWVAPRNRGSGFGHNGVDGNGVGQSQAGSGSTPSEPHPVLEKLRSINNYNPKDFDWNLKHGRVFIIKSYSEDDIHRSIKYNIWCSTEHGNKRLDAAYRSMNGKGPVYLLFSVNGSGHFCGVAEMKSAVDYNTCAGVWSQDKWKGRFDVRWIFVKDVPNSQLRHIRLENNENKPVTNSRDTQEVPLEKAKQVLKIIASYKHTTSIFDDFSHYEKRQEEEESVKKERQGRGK
Description: as §1

[3] = target: T2, YTH domain-containing family protein 1 (Homo sapiens, UniProt Q9BYJ9)
T2 sequence (Q9BYJ9 whole entry): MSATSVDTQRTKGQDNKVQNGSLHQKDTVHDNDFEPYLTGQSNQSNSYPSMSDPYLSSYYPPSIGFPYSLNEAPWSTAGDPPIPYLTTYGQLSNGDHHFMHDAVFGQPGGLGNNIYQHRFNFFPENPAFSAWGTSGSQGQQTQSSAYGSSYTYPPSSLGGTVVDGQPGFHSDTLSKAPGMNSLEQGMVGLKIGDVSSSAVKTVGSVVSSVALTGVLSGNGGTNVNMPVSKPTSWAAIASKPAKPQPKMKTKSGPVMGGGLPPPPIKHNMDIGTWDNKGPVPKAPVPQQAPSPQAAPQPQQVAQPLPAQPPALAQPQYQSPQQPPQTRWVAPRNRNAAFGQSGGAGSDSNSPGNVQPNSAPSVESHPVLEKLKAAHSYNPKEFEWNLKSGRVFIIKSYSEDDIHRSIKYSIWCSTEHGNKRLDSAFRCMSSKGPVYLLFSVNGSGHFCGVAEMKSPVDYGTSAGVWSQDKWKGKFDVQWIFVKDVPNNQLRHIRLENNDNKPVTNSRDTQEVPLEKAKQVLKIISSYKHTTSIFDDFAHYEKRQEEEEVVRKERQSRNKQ
Description: as §1

RNA demethylase ALKBH5, sequence (Q6P6C2 whole entry): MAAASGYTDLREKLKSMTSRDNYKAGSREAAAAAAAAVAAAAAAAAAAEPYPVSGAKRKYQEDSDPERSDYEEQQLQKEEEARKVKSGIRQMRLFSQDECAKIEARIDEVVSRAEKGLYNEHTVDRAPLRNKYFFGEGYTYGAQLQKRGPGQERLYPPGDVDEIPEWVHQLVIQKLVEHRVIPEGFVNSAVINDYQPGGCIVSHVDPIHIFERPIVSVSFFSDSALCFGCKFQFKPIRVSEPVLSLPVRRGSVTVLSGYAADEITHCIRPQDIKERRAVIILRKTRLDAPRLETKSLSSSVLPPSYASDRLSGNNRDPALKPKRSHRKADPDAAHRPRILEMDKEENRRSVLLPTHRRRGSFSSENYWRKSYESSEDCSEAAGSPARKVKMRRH
Alpha-ketoglutarate-dependent dioxygenase FTO, sequence (Q9C0B1 whole entry): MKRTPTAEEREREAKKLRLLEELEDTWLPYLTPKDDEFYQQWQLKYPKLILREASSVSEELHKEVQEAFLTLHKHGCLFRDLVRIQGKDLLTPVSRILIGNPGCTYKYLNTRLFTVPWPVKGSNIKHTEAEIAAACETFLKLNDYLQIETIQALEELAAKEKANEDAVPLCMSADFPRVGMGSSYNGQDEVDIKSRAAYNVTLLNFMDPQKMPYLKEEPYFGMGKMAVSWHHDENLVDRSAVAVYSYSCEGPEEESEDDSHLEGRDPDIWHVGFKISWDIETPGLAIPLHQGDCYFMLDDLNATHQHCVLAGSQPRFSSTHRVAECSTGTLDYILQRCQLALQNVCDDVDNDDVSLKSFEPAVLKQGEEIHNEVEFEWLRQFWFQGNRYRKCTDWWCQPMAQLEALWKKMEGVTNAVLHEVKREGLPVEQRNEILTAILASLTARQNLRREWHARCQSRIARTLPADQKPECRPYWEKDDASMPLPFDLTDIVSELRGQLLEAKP

| SMILES | IC50 [1] [nM] | IC50 (RNA demethylase ALKBH5) [nM] | Ki [2] [nM] | Ki [3] [nM] |
| --- | --- | --- | --- | --- |
| O=S(=O)(Nc1ccc(Cl)c(Cl)c1)c1ccc(OC(F)(F)F)cc1 [US20230322715, Compound TR-ALKBH5-33] | > 40000 | 2600 | – | – |
| O=C(C1CC1)N1CCN(S(=O)(=O)c2ccc(OC(F)(F)F)cc2)CC1 [US20230322715, Compound TR-ALKBH5-41] | > 40000 | 450 | – | – |
| CSc1ccccc1Nc1ccc(CNC2CC2)cn1 [US20230322715, Compound TR-YTH-11] | – | – | 5.59 | 13.4 |
| Fc1ccc(Nc2ccc(CNC3CC3)cn2)c(F)n1 [US20230322715, Compound TR-YTH-14] | – | – | 0.128 | 0.399 |

Next, values leading:

| IC50 [1] [nM] | IC50 (RNA demethylase ALKBH5) [nM] | Ki [2] [nM] | Ki [3] [nM] | SMILES |
| --- | --- | --- | --- | --- |
| – | – | 0.15 | 0.473 | COc1cc(Nc2ccc(CNC3CC3)cn2)cc(OC)c1 [US20230322715, Compound TR-YTH-13] |
| – | – | 0.333 | 0.605 | Cc1ccc(Nc2ccc(CN(C)C)cn2)cc1C [US20230322715, Compound TR-YTH-17] |
